PMC6250127 (Journal of medicinal chemistry, 2015)
Entries after “also recorded” stand apart in the source; their conditions may differ. Read-outs that look alike come from different tables or passages of the source.

Tests used:
rat D3 receptor [1] = target: T1, rat D3 receptor (Rattus norvegicus, UniProt P19020); details: ratio of Ki values; cited from earlier work
human D2 receptor = human D2 receptor (Homo sapiens, UniProt P14416); experiment: Stimulation of [35S]GTPγS binding, human D2 receptor in CHO cells; assay type: biochemical; details: for Emax: read-out: hCHO−D2 Emax, percent of Emax observed with 1 mM DA; for hCHO−D2 Emax: percent of Emax observed with 1 mM DA
Chain of human D2 receptor (P14416 whole entry): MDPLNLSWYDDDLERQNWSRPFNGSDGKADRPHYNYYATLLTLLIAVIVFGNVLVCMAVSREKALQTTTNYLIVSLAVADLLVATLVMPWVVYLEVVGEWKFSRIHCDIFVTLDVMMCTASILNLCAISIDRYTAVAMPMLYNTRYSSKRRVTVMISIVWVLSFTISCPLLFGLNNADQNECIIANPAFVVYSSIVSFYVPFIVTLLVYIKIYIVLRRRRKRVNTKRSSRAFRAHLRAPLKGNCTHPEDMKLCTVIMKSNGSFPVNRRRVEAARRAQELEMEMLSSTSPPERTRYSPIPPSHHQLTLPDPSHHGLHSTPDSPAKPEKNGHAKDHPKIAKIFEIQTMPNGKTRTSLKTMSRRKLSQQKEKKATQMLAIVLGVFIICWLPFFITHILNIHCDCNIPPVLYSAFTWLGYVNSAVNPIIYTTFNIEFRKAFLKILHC

PC12 cells [2] = experiment: PC12 cell viability, direct effect of compound; details: PC12 cells, 0.01− 30 μM
PC12 cells [3] = experiment: Neuroprotection against 6-OHDA-induced toxicity in PC12 cells; details: 24 h pretreatment, then 75 μM 6-OHDA for 24 h
human D3 receptor = human D3 receptor (Homo sapiens, UniProt P35462); experiment: Stimulation of [35S]GTPγS binding, human D3 receptor in CHO cells; assay type: biochemical; details: for Emax: read-out: hCHO−D3 Emax, percent of Emax observed with 100 μM DA; for D2/D3: ratio of GTPγS EC50 values
Chain of human D3 receptor (P35462 whole entry): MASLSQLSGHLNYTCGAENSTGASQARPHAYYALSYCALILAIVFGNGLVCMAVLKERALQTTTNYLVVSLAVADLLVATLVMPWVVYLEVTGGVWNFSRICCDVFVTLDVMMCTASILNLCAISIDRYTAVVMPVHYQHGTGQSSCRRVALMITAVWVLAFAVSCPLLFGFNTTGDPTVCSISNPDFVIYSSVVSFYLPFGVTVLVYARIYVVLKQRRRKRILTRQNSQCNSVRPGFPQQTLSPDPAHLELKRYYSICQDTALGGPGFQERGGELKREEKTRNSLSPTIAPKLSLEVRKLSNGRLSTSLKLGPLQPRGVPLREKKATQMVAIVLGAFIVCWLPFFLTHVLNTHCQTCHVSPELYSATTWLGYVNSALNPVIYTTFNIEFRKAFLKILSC

reserpinized rats = experiment: Reversal of reserpine-induced hypolocomotion in rats; assay type: in vivo, rat; details: for reversal of reserpine-induced hypolocomotion (locomotor activity): 10 μMol/kg ip, reserpine 5 mg/kg sc, 18 h pretreatment, rats; for duration of locomotor activation: 10 μMol/kg, reserpinized rats, locomotion monitored for 6 h
rat D3 receptor [4] = target: T1, rat D3 receptor; experiment: [3H]spiroperidol competition binding, rat D3 receptor in HEK-293 cells; details: for D2L/D3: ratio of Ki values, selectivity for D3
rat D2L receptor = rat D2L receptor (Rattus norvegicus, UniProt P61169); experiment: [3H]spiroperidol competition binding, rat D2L receptor in HEK-293 cells
Chain of rat D2L receptor (P61169 whole entry): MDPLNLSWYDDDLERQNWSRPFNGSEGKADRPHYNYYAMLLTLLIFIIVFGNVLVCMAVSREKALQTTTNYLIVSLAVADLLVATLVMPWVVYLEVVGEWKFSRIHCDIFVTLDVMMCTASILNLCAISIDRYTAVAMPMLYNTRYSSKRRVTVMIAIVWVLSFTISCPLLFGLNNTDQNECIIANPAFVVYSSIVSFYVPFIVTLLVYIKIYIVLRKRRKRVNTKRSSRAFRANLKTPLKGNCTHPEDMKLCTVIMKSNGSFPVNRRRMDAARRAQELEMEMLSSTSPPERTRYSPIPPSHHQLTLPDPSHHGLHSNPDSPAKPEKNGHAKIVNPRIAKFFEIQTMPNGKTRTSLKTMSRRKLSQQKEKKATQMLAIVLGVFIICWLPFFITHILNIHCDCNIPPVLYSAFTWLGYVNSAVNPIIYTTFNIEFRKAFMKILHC

[5] = PC12 cell viability, direct effect of compound; details: rat

T1 sequence (P19020 whole entry): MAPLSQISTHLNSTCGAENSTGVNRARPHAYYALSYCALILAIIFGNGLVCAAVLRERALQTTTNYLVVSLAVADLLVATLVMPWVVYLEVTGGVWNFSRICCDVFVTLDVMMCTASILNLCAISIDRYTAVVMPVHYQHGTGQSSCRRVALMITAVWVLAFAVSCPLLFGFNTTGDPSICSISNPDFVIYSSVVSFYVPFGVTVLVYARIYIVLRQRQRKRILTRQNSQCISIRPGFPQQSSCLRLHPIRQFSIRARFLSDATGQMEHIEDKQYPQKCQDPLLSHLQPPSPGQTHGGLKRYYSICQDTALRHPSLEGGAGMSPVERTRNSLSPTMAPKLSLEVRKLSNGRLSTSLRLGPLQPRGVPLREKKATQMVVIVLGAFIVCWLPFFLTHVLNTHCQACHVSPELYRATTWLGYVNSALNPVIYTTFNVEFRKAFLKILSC

| Emax (human D3 receptor) | Ki (rat D3 receptor [4]) | D2L/D3 (rat D3 receptor [4]) | EC50 (human D2 receptor) | hCHO−D2 Emax (human D2 receptor) | Ki (rat D2L receptor) | EC50 (human D3 receptor) | D2/D3 (human D3 receptor) | Structure (SMILES) | Emax (human D2 receptor) | reversal of reserpine-induced hypolocomotion (locomotor activity) (reserpinized rats) | duration of locomotor activation (reserpinized rats) | also measured |
| --- | --- | --- | --- | --- | --- | --- | --- | --- | --- | --- | --- | --- |
|  |  |  |  |  |  |  |  | CCCN(CCN1CCN(C(=O)c2c[nH]c3ccccc23)CC1)C1CCc2nc(N)sc2C1 [D-443, (4-(2-((2-amino-4,5,6,7-tetrahydrobenzo[d]-thiazol-6-yl)(propyl)amino)ethyl)-piperazin-1-yl)(1H-indol-3-yl)methanone] |  |  |  | D2L/D3 (rat D3 receptor [1]): 360 |
| ~100% | 0.145 ± 0.035 nM | 1186 | 39.4 ± 6.3 nM | 86.8 ± 3.8% | 172 ± 16 nM | 0.84 ± 0.05 nM | 46.9 | C#CCN(CCN1CCN(c2ccc3cc[nH]c3c2Cl)CC1)[C@H]1CCc2nc(N)sc2C1 [(−)-36, (S)-N^6-(2-(4-(7-Chloro-1H-indol-6-yl)piperazin-1-yl)ethyl)-N^6-(prop-2-yn-1-yl)-4,5,6,7-tetrahydrobenzo[d]thiazole-2,6-diamine] | ~100% |  |  | hCHO−D3 Emax (human D3 receptor; percent of Emax observed with 100 μM DA): 93.4 ± 3.6% |
|  |  |  |  |  |  |  |  | CCCN(CCC)CCc1cccc2c1CC(=O)N2 [ropinirole, reference compound] |  | quick onset of locomotor activation compared to control | much shorter duration of action compared with (−)-21a |  |
| 94 ± 3.5% | 14.4 ± 1 nM | 5.99 | 21.6 ± 9.6 nM | 26.7 ± 6.4% | 86.5 ± 15 nM | 10.9 ± 2.4 nM | 1.98 | C#CCN(CCN1CCN(c2ccc3[nH]ccc3c2Cl)CC1)[C@H]1CCc2nc(N)sc2C1 [(−)-34, (S)-N^6-(2-(4-(4-Chloro-1H-indol-5-yl)piperazin-1-yl)ethyl)-N^6-(prop-2-yn-1-yl)-4,5,6,7-tetrahydrobenzo[d]thiazole-2,6-diamine] |  | able to elevate locomotor activity in the above PD animal model significantly; also recorded: locomotor activity was enhanced compared to control but was less than that observed with (−)-21a |  |  |
|  |  |  |  |  |  |  |  | NCCc1cc(O)c(O)cc1O [6-OHDA, 6-hydroxydopamine, reference compound] |  |  |  | viability at 24 h, 75 μM [5]: ~50% |

| Structure (SMILES) | Emax (human D3 receptor) | Ki (rat D3 receptor [4]) | D2L/D3 (rat D3 receptor [4]) | EC50 (human D2 receptor) | hCHO−D2 Emax (human D2 receptor) | Ki (rat D2L receptor) | EC50 (human D3 receptor) | D2/D3 (human D3 receptor) | Emax (human D2 receptor) | reversal of reserpine-induced hypolocomotion (locomotor activity) (reserpinized rats) | duration of locomotor activation (reserpinized rats) | also measured |
| --- | --- | --- | --- | --- | --- | --- | --- | --- | --- | --- | --- | --- |
| CCCN(CCN1CCN(c2ccc3cc[nH]c3c2Cl)CC1)[C@H]1CCc2nc(N)sc2C1.O=C(O)C(F)(F)F [(−)-21a, (S)-N^6-(2-(4-(7-Chloro-1H-indol-6-yl)piperazin-1-yl)ethyl)-N^6-propyl-4,5,6,7-tetrahydrobenzo[d]thiazole-2,6-diamine] | > 100% |  |  |  |  |  |  |  | > 100% | highly effcacious in reversing hypolocomotion; also recorded: highly efficacious in reversing akinesia in rats | long duration of action; also recorded: significant enhancement of locomotion for the entire duration of the study of 6 h | effect of compound alone on cell viability (PC12 cells [2]): no cell loss at all; neuroprotective effect against 6-OHDA-induced toxicity (PC12 cells [3]): neuroprotective; also recorded: dose-dependently protected the cells from the neurotoxic insult |
